Values after ≈ are worked out from the molar mass of the structure shown. Where two headings read alike, the source gives them in different places.

One assay has as its system P. acnes. The arrangement: key: HS, hypersensitive; R, resistant; S, sensitive. Conditions: cited from earlier work.
The subject of a further assay is M. pneumoniae. The arrangement: key: HS, hypersensitive; R, resistant; S, sensitive. Conditions: cited from earlier work.
A further assay has as its system E. coli. The arrangement: key: HS, hypersensitive; R, resistant; S, sensitive. The note with it: cited from earlier work.
A further assay relates to Helicobacter. Conditions: cited from earlier work.
The test system of the next assay is 23S rRNA. The note with it: protein-free 23S rRNA extracts (Noller et al., 1992); cited from earlier work.
Assay [1] concerns H. pylori. More on the design: key: HS, hypersensitive; R, resistant; S, sensitive. The note with it: cited from earlier work.
Assay [2] relates to H. pylori. Description: MIC value of conventionally characterized H. pylori isolates (clarithromycin). The format is cell-based, Helicobacter pylori. The arrangement: MIC value: unit not given beside the values. The note with it: for MIC: Helicobacter pylori. An excerpt:
Evaluating the MIC value determination by in-situ hybridization using conventionally characterized H. pylori isolates.

A further assay concerns M. intracellulare. The arrangement: key: HS, hypersensitive; R, resistant; S, sensitive. The note with it: cited from earlier work.

On to `CC[C@H]1OC(=O)[C@H](C)[C@@H](O[C@H]2C[C@@](C)(OC)[C@@H](O)[C@H](C)O2)[C@H](C)[C@@H](O[C@@H]2O[C@H](C)C[C@H](N(C)C)[C@H]2O)[C@](C)(O)C[C@@H](C)C(=O)[C@H](C)[C@@H](O)[C@]1(C)O` [erythromycin], for which the Phenotype result in the assay on P. acnes (23S rRNA mutation A2058G) is listed as “Cla^R, Ery^R”; with P. acnes (23S rRNA mutation A2059G) it was “Cla^R, Ery^R”; with P. acnes (23S rRNA mutation G2057A), “Cla^R, Ery^R”; in the assay on M. pneumoniae (23S rRNA mutation A2058G), “Ery^R”; in the assay on M. pneumoniae (23S rRNA mutation A2059G) it was “Ery^R”; in the assay on E. coli (23S rRNA mutation A2058G) it was “Ery^R”. Besides, the Phenotype result is recorded as “Ery^R” in the assay on E. coli (23S rRNA mutation A2058U); “Ery^RLin^RSgb^R” in the assay on E. coli (23S rRNA mutation C2611U); “HS” with E. coli (23S rRNA mutation G2032A); “HS” in the assay with E. coli (23S rRNA mutation G2032C); “HS” with E. coli (23S rRNA mutation G2032U); “Ery^R, Cam^R” with E. coli (23S rRNA mutation G2057A).
In the case of `O=C([O-])c1ccccc1[O-].[Bi+3].[OH-]` [BSS], the “Effect on Helicobacter” value with Helicobacter is “bactericidal effect”.
Consider `CO[C@@H]1[C@@H](O[C@@H]2O[C@H](C)[C@@H](O[C@H]3C[C@@](C)(O)[C@@H](OC(=O)CC(C)C)[C@H](C)O3)[C@H](N(C)C)[C@H]2O)[C@@H](CC=O)C[C@@H](C)C(=O)/C=C/[C@@H]2O[C@@H]2C[C@@H](C)OC(=O)C[C@H]1OC(C)=O` [carbomycin], for which the “Inhibition of in-vitro peptidyltransferase activity” value with 23S rRNA is “able to inhibit”.
What is called MIC is the lowest concentration that inhibits growth of the organism. Take `CC[C@H]1OC(=O)[C@H](C)[C@@H](O[C@H]2C[C@@](C)(OC)[C@@H](O)[C@H](C)O2)[C@H](C)[C@@H](O[C@@H]2O[C@H](C)C[C@H](N(C)C)[C@H]2O)[C@](C)(OC)C[C@@H](C)C(=O)[C@H](C)[C@@H](O)[C@]1(C)O` [clarithromycin]: the Phenotype result with H. pylori [1] (23S rRNA mutation A2053C) is on record as “Cla^R”; in the assay on H. pylori [1] (23S rRNA mutation A2053G), “Cla^R”; in the assay on H. pylori [1] (23S rRNA mutation A2059G), “Cla^R”; in the assay on P. acnes (23S rRNA mutation A2058G), “Cla^R, Ery^R”; in the assay with P. acnes (23S rRNA mutation A2059G), “Cla^R, Ery^R”; in the assay with P. acnes (23S rRNA mutation G2057A), “Cla^R, Ery^R”. Moreover, the Phenotype entry in the assay on M. intracellulare (23S rRNA mutation A2053C), in the assay with M. intracellulare (23S rRNA mutation A2058G) and in the assay on M. intracellulare (23S rRNA mutation A2058U) was “Cla^R” in each case. The MIC value in the assay on H. pylori [2] (H. pylori strain FD591) is 16/32. In addition, the MIC was 48 µg/mL (≈ 64.2 µM) with H. pylori [2] (H. pylori strain HH531); 16 µg/mL (≈ 21.4 µM) with H. pylori [2] (H. pylori strain KJ472); 24 µg/mL (≈ 32.1 µM) in the assay with H. pylori [2] (H. pylori strain MC028); 12 µg/mL (≈ 16 µM) against H. pylori [2] (H. pylori strain MC132); greater than 256 µg/mL with H. pylori [2] (H. pylori strain MC141); greater than 256 µg/mL against H. pylori [2] (H. pylori strain MPS1726). Moreover, the MIC is greater than 256 µg/mL in the assay on H. pylori [2] (H. pylori strain MPS1765), 96 µg/mL (≈ 128 µM) against H. pylori [2] (H. pylori strain MPS3137) and greater than 256 µg/mL with H. pylori [2] (H. pylori strain MPS3286).
Turning to `O=C(N[C@H](CO)[C@H](O)c1ccc([N+](=O)[O-])cc1)C(Cl)Cl` [chloramphenicol], the Phenotype result in the assay on E. coli (23S rRNA mutation A2503C) is “Cam^R”; with E. coli (23S rRNA mutation G2032A), “R”; in the assay on E. coli (23S rRNA mutation G2032C), “S”; in the assay with E. coli (23S rRNA mutation G2032U), “S”; in the assay on E. coli (23S rRNA mutation G2057A) it was “Ery^R, Cam^R”.
With `CCC[C@@H]1C[C@@H](C(=O)N[C@@H]([C@H]2O[C@H](SC)[C@H](O)[C@@H](O)[C@H]2O)[C@@H](C)O)N(C)C1` [lincomycin], the Phenotype result in the assay with E. coli (23S rRNA mutation C2611U) is “Ery^RLin^RSgb^R”.

(Values after patent US7005257B1, “Detection of antibiotic resistance in microorganisms” (priority 1998, dated 2006).)
